Common to all, as to format: cell-based
One experiment has as its system AsPC-1. Put plainly: In vitro cell proliferation inhibition assay (CellTiter-Glo), AsPC-1. To be noted: AsPC-1, KRAS (p.G12D), 72 h; read-out: IC50, antiproliferative activity. On the procedure: (§1) Due to the diversity of RAS mutations, and in order to evaluate the activity of the compounds in different RAS mutant cell lines, we selected cell lines with KRAS^G12D, KRAS^G12V, KRAS^G12c, NRAS^q61L, KRAS^G13D, KRAS^G12R, and KRAS^WT mutations (see the table below for in vitro activity evaluation and screening of the compounds.
(§2) According to the doubling time of different cell lines, different numbers of cells (1000-5000 cells/well) were seeded into 96-well plates containing 180 μL of the corresponding culture medium, and incubated overnight in a cell incubator at 37 °C with 5% C02. On the following day, the test compounds were pre-diluted in the culture medium in a 3-fold serial dilution series, with the highest concentration being […], resulting in 10 concentration gradients in total. Subsequently, 20 μL of culture medium containing the compounds at different concentrations was added to the cells in the 96-well plates, ensuring a final compound concentration of up to 10 μM, with 10 concentrations in 3-fold dilution. After co-incubation of the cells with the compounds for 72 h, the 96-well plates were removed from the incubator and equilibrated at room temperature for 30 min. Then, 25 μL of CellTiter-Glo® Reagent was added to each well and mixed thoroughly, followed by incubation at room temperature for 10 min. Subsequently, 100 μL of the samples was transferred to white 96-well plates (OptiPlate™-96, PerkinElmer), and […] signal values were read using a multifunctional microplate reader (SpectraMax i3x, Molecular Devices). The signal values were then normalized, and curve fitting was performed using a four-parameter logistic regression equation to calculate the half maximal inhibitory concentration (IC50) of the compounds against the cell lines.
Background: Cellular ATP, detected with luciferase, serves as a proxy for viable cell number.

A further experiment has as its system SW480. Put plainly: In vitro cell proliferation inhibition assay (CellTiter-Glo), SW480. To be noted: SW480, KRAS (p.G12V), 72 h; read-out: IC50, antiproliferative activity. On the procedure:
as §1, §2

The next experiment concerns H358. Put plainly: In vitro cell proliferation inhibition assay (CellTiter-Glo), H358. To be noted: H358, KRAS (p.G12C), 72 h; read-out: IC50, antiproliferative activity. On the procedure:
as §1, §2

Another experiment concerns HepG2. Put plainly: In vitro cell proliferation inhibition assay (CellTiter-Glo), HepG2. To be noted: HepG2, NRAS (p.Q61L), 72 h; read-out: IC50, antiproliferative activity. On the procedure:
as §1, §2

The next experiment relates to HCT116. Put plainly: In vitro cell proliferation inhibition assay (CellTiter-Glo), HCT116. To be noted: HCT116, KRAS (p.G13D), 72 h; read-out: IC50, antiproliferative activity. On the procedure: as §1, §2
The next experiment has as its system PSN1. Put plainly: In vitro cell proliferation inhibition assay (CellTiter-Glo), PSN1. To be noted: PSN1, KRAS (p.G12R), 72 h; read-out: IC50, antiproliferative activity. On the procedure:
as §1, §2

A further experiment relates to MV411. Put plainly: In vitro cell proliferation inhibition assay (CellTiter-Glo), MV411. To be noted: MV411, KRAS wild type, 72 h; read-out: IC50, antiproliferative activity. On the procedure: as §2

On to `CCn1c(-c2cc(-c3nnc(C4CCN(C5COC5)CC4)o3)cnc2[C@H](C)OC)c2c3cc(ccc31)-c1csc(n1)C[C@H](NC(=O)[C@H]1C[C@@H]1C)C(=O)N1CCC[C@H](N1)C(=O)OCC(C)(C)C2` (atropisomer, axis not shown) [Compound 1, (1S,2S)—N-((6^3S,4S,Z)-1^1-ethyl-1^2-(2-((S)-1-methoxyethyl)-5-(5-(1-(oxetan-3-yl)piperidin-4-yl)-1,3,4-oxadiazol-2-yl)pyridin-3-yl)-10,10-dimethyl-5,7-dioxo-6^1,6^2,6^3,6^4,6^5,6^6-hexahydro-1^1H-8-oxa-2(4,2)-thiazola-1(5,3)-indola-6(1,3)-pyridazinacycloundecaphane-4-yl)-2-methylcyclopropane-1-carboxamide], for which the IC50 is 0.05 nM with AsPC-1; 0.07 nM in the experiment with SW480; 0.06 nM in the experiment with H358; 5 nM with HepG2; roughly 10 nM with HCT116; 5.1 nM in the experiment on PSN1. In addition, in the experiment on MV411, the IC50 amounted to 1.7 nM.

Take `CCn1c(-c2cc(-c3nnc([C@H]4CCCN(C5COC5)C4)o3)cnc2[C@H](C)OC)c2c3cc(ccc31)-c1csc(n1)C[C@H](NC(=O)[C@H]1C[C@@H]1C)C(=O)N1CCC[C@H](N1)C(=O)OCC(C)(C)C2` (atropisomer, axis not shown) [Compound 18, (1S,2S)—N-((6^3S,4S,Z)-1^1-ethyl-1^2-(2-((S)-1-methoxyethyl)-5-(5-((S)-1-(oxetan-3-yl)piperidin-3-yl)-1,3,4-oxadiazol-2-yl)pyridin-3-yl)-10,10-dimethyl-5,7-dioxo-6^1,6^2,6^3,6^4,6^5,6^6-hexahydro-1^1H-8-oxa-2(4,2)-thiazola-1(5,3)-indola-6(1,3)-pyridazinacycloundecaphane-4-yl)-2-methylcyclopropane-1-carboxamide]: the IC50 in the experiment with AsPC-1 came out at 0.03 nM; in the experiment with SW480, 0.13 nM; with H358, 0.39 nM; with HepG2, 1.6 nM; with HCT116, 23 nM; in the experiment with PSN1 it was 5.3 nM. In addition, in the experiment with MV411, the IC50 is 13 nM.

Turning to `CCn1c(-c2cc(-c3nc(C4CCN(C5COC5)CC4)n(C4COC4)n3)cnc2[C@H](C)OC)c2c3cc(ccc31)-c1csc(n1)C[C@H](NC(=O)[C@H]1C[C@@H]1C)C(=O)N1CCC[C@H](N1)C(=O)OCC(C)(C)C2` (atropisomer, axis not shown) [Compound 26, (1S,2S)—N-((6^3S,4S,Z)-1^1-ethyl-1^2-(2-((S)-1-methoxyethyl)-5-(1-(oxetan-3-yl)-5-(1-(oxetan-3-yl)piperidin-4-yl)-1H-1,2,4-triazol-3-yl)pyridin-3-yl)-10,10-dimethyl-5,7-dioxo-6^1,6^2,6^3,6^4,6^5,6^6-hexahydro-1^1H-8-oxa-2(4,2)-thiazola-1(5,3)-indola-6(1,3)-pyridazinacycloundecaphane-4-yl)-2-methylcyclopropane-1-carboxamide], the IC50 in the experiment with AsPC-1 was 0.25 nM; in the experiment with SW480, 0.54 nM; in the experiment on H358 it was 0.01 nM; with HepG2, 0.25 nM; in the experiment with HCT116 it was 3.2 nM; in the experiment with PSN1, 0.08 nM. In the experiment with MV411, the IC50 amounted to 0.64 nM.

Regarding `CCn1c(-c2cc(-c3nc(C4CCN(C5COC5)CC4)n(CCN(C)C)n3)cnc2[C@H](C)OC)c2c3cc(ccc31)-c1csc(n1)C[C@H](NC(=O)[C@H]1C[C@@H]1C)C(=O)N1CCC[C@H](N1)C(=O)OCC(C)(C)C2` (atropisomer, axis not shown) [Compound 27, (1S,2S)—N-((6^3S,4S,Z)-1^2-(5-(1-(2-(dimethylamino)ethyl)-5-(1-(oxetan-3-yl)piperidin-4-yl)-1H-1,2,4-triazol-3-yl)-2-((S)-1-methoxyethyl)pyridin-3-yl)-1^1-ethyl-10,10-dimethyl-5,7-dioxo-6^1,6^2,6^3,6^4,6^5,6^6-hexahydro-1^1H-8-oxa-2(4,2)-thiazola-1(5,3)-indola-6(1,3)-pyridazinacycloundecaphane-4-yl)-2-methylcyclopropane-1-carboxamide], the IC50 with AsPC-1 came to 0.37 nM; with SW480 it was 0.87 nM; in the experiment on H358 it was 0.17 nM; with HepG2, 0.05 nM; with HCT116, 11 nM; in the experiment on PSN1, 0.16 nM. Also, in the experiment with MV411, the IC50 worked out at 1.1 nM.

For the molecule `CO[C@@H](C)c1ncc(-c2nnc(C3CCN(C4COC4)C[C@@H]3C)o2)cc1-c1c2c3cc(ccc3n1CC(F)(F)F)-c1csc(n1)C[C@H](NC(=O)[C@H]1[C@H](C)[C@@H]1C)C(=O)N1N[C@H](C(=O)OCC(C)(C)C2)C2CC1C2` (stereo partly drawn) [Compound 38], the IC50 with AsPC-1 came out at 0.01 nM; in the experiment with SW480, 0.04 nM; in the experiment with H358, 0.04 nM; in the experiment with HepG2 it was 0.11 nM; in the experiment with HCT116, 0.02 nM; in the experiment on PSN1 it was 0.01 nM. Moreover, the IC50 in the experiment with MV411 came out at 0.45 nM.

In the case of `CO[C@@H](C)c1ncc(-c2noc(C3CCN(C4COC4)CC3)n2)cc1-c1c2c3cc(ccc3n1CC(F)(F)F)-c1csc(n1)C[C@H](NC(=O)[C@H]1[C@H](C)[C@@H]1C)C(=O)N1N[C@H](C(=O)OCC(C)(C)C2)C2CC1C2` [Example 42], the IC50 with AsPC-1 turned out to be 0.01 nM; in the experiment with SW480, 0.02 nM; with H358, 0.03 nM; in the experiment on HepG2, 0.01 nM; in the experiment on HCT116, 0.03 nM; in the experiment on PSN1, 0.01 nM. Further, the IC50 in the experiment on MV411 was 0.56 nM.

Regarding `CO[C@@H](C)c1ncc(-c2nnc(C3CCN(C4CCN(C)CC4)CC3)o2)cc1-c1c2c3cc(ccc3n1CC(F)(F)F)-c1csc(n1)C[C@H](NC(=O)[C@H]1[C@@H]3COC[C@@H]31)C(=O)N1N[C@H](C(=O)OCC(C)(C)C2)C2CC1C2` [Example 45], the IC50 with AsPC-1 turned out to be 0.06 nM; in the experiment with SW480, 0.37 nM; with H358, 0.01 nM; in the experiment on HepG2, 0.022 nM; in the experiment with HCT116 it was 1.1 nM; with PSN1 it was 0.04 nM. In the experiment on MV411, the IC50 is 0.42 nM.

Turning to `CO[C@@H](C)c1ncc(-c2nnc(C3CCN(C4COC4)C3)o2)cc1-c1c2c3cc(ccc3n1CC(F)(F)F)-c1csc(n1)C[C@H](NC(=O)[C@H]1[C@H](C)[C@@H]1C)C(=O)N1N[C@H](C(=O)OCC(C)(C)C2)C2CC1C2` (stereo partly drawn) [Example 46], the IC50 was determined as 0.05 nM with AsPC-1; 0.06 nM in the experiment on SW480; 0.01 nM in the experiment with H358; 0.05 nM in the experiment on HepG2; 0.58 nM in the experiment with HCT116; 0.09 nM with PSN1. Also, in the experiment on MV411, the IC50 came out at 1 nM.

For `CCn1c(-c2cc(N3CCN(C)CC3)cnc2[C@H](C)OC)c2c3cc(ccc31)-c1csc(n1)C[C@H](NC(=O)[C@H]1C[C@@H]1C)C(=O)N1CCC[C@H](N1)C(=O)OCC(C)(C)C2` [RMC-6236], the IC50 was determined as 1.2 nM in the experiment on AsPC-1; 1.5 nM with SW480; 0.08 nM in the experiment on H358; 2.8 nM in the experiment with HepG2; 2.6 nM in the experiment on HCT116; 2 nM with PSN1. In addition, the IC50 with MV411 stood at 4.2 nM.

The IC50 is the midpoint of a concentration-inhibition curve.

Source of the values: patent publication US20260355191A1, “PAN-RAS INHIBITOR COMPOUND” (ADLAI NORTYE BIOPHARMA CO., LTD., priority 2024, published 2026).
